Measured values taken from US4514408A, “N-substituted nicotinamide 1-oxide as histamine H2 receptor blockers” (Sanofi, priority 1982, dated 1985).

Experiments:
[1] = target: T1, gastric histamine H2 receptors (Rattus norvegicus, UniProt P25102); test: antisecretory activity: antagonism of gastric hypersecretion induced by histamine in the atropinised rat (Ghosh and Schild modified according to Black); type: in vivo; conditions: for ED50: intravenous, single administration, histamine i.v. infusion 15 mcmol/kg/hour, atropinised rat, read-out: ID50 (dose which inhibits by 50% the gastric hypersecretion induced by histamine)
T1 construct: the gastric secretion is measured by perfusion of a physiological solution at a constant speed in the stomach of the animal; from tissue; host or cells: stomach of the living atropinised rat (in vivo, endogenous receptor)
T1 sequence (P25102 whole entry, the tested form may be a part): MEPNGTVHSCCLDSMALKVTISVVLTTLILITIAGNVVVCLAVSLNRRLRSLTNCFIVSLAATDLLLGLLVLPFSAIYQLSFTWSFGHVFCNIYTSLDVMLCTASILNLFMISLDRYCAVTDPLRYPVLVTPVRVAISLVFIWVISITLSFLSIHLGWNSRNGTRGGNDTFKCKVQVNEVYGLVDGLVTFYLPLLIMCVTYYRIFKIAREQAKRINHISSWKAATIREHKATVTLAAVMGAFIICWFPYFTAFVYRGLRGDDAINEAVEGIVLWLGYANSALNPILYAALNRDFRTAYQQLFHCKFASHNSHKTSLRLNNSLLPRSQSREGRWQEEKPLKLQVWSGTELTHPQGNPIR
Method: According to this test, a gastric acid hypersecretion is induced by intravenous infusion of a sub-maximal dose of histamine equivalent to 15 mcmol/kg/hour and the gastric secretion is measured by perfusion of a physiological solution at a constant speed in the stomach of the animal.
Cimetidine and ranitidine, which represent standard compounds, as well as:
the compound of formula [drawing 5] as oxalate, and […]

histamine H2 receptors = conditions: i.v.; cited from earlier work
[2] = from ID50, i.v., cimetidine = 1

| Compound | Relative potency (cimetidine = 1) [1, 2] | ED50 [1] | ED50 (histamine H2 receptors) | Relative potency (cimetidine = 1) ([1]; rat, in vivo, iv) |
| --- | --- | --- | --- | --- |
| O=C(NCCCOc1cccc(CN2CCCC2)c1)c1cccnc1 [Compound V, reference compound] | 0.43 | 2.22 µmol/kg | 1.25 mg/kg | – |
| CNC(=C[N+](=O)[O-])NCCSCc1ccc(CN(C)C)o1 [Ranitidine, N-[2-[[5-[(dimethylamino)methyl]furfuryl]thio]ethyl]-N'-methyl-2-nitro-1,1-ethenediamine, reference compound] | – | – | – | 3.80 |
| CC1CCCN(Cc2cccc(OCCCNC(=O)c3ccc[n+]([O-])c3)c2)C1 (centres unmarked) [SR 58042, N-[3-[3-(3-methylpiperidinomethyl)phenoxy]propyl]-3-pyridinecarboxamide1-oxide] | 6.78 | 0.14 µmol/kg | – | – |
| CCCCN(CCCC)Cc1cccc(OCCCNC(=O)c2ccc[n+]([O-])c2)c1 [SR 58062, N-[3-(3-di-n-butylaminomethylphenoxy)propyl]-3-pyridinecarboxamide 1-oxide] | 1.19 | 0.8 µmol/kg | – | – |
| O=C(NCCCOc1cc(CN2CCCCC2)ccn1)c1ccc[n+]([O-])c1 [SR 58065, N-[3-(4-piperidinomethylpyrid-2-yloxy)propyl]3-pyridinecarboxamide 1-oxide] | 1.48 | 0.64 µmol/kg | – | – |
| O=C(NCCCOc1cccc(CN2CCC(O)CC2)c1)c1ccc[n+]([O-])c1 [SR 58067, N-[3-[3-(4-hydroxypiperidinomethyl)phenoxy]propyl]-3-pyridinecarboxamide 1-oxide] | 1.34 | 0.71 µmol/kg | – | – |

Further lines, with some results ahead:

| Relative potency (cimetidine = 1) [1, 2] | ED50 [1] | Compound | ED50 (histamine H2 receptors) | Relative potency (cimetidine = 1) ([1]; rat, in vivo, iv) |
| --- | --- | --- | --- | --- |
| 2.43 | 0.39 µmol/kg | O=C(NCCCOc1cccc(CN2CCCC2)c1)c1ccc[n+]([O-])c1 [CM 57891, N-[3-(3-pyrrolidinomethylphenoxy)propyl]-3-pyridinecarboxamide 1-oxide] | – | – |
| 0.47 | 2.01 µmol/kg | O=CNCCCOc1cccc(CN2CCCC2)c1 [Compound IV, reference compound] | 0.84 mg/kg | – |
| 8.64 | 0.11 µmol/kg | O=C(NCCCOc1cccc(CN2CCCCC2)c1)c1ccc[n+]([O-])c1 [SR 58017A, N-[3-(3-piperidinomethylphenoxy)propyl]-3-pyridinecarboxamide 1-oxide sesquioxalate] | – | – |
| 7.31 | 0.13 µmol/kg | CC1CCN(Cc2cccc(OCCCNC(=O)c3ccc[n+]([O-])c3)c2)CC1 [SR 58037, N-[3-[3-(4-methylpiperidinomethyl)phenoxy]propyl]-3-pyridinecarboxamide 1-oxide] | – | – |
| 3.80 | 0.25 µmol/kg | O=C(NCCCOc1cccc(CN2CCCCCC2)c1)c1ccc[n+]([O-])c1 [SR 58052, N-[3-(3-hexamethyleneiminomethylphenoxy)propyl]-3-pyridinecarboxamide 1-oxide] | – | – |
